Experimental data taken from PubChem BioAssay AID588780 (Sanford-Burnham Center for Chemical Genomics, 2011).
Active and inactive are the calls of the source.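 The calls were made as follows: active = compounds whose fitted half-maximal concentration in the cell-protection dose series is at or below a set limit; inactive = the rest.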

system: H9c2 cardiomyocytes, 2-deoxyglucose stress, ATP luminescence, 2 h; test: H9c2 cell survival under 2-deoxyglucose stress – uHTS hits, dose response (AID 588780)

Structure (SMILES)	IC50
FC(F)(F)c1nnc2ccc(N3CCCC3)nn12	> 79 µM (inactive)
CN(C(=O)CSc1nc2c(c(=O)[nH]1)CCCC2)C1CCCCC1	> 79 µM (inactive)
Cc1ccc(C(=O)Nc2nc(-c3ccccn3)cs2)s1	> 79 µM (inactive)
Cc1ccc2[nH]c(=O)c(CN(Cc3ccco3)S(=O)(=O)c3c(C)ccc4nsnc34)cc2c1	29.7 µM
COc1ccc(C(C(=O)NCc2ccccc2)N(Cc2cccs2)C(=O)c2cnccn2)cc1 (centres undefined)	16.1 µM
CCCCn1c(N)c(Br)c(=O)[nH]c1=O	> 79 µM (inactive)
CCOC(=O)C1C(=O)NC(SCC(=O)OC)=C(C#N)C1c1ccccc1OCC (centres undefined)	17 µM
O=c1[nH]nc(CNc2ccc(O)cc2)c2ccccc12	> 79 µM (inactive)
C[C@@H]1CN([C@@H](C)CO)C(=O)c2cc(NC(=O)Nc3ccccc3)ccc2O[C@H]1CN(C)C(=O)Nc1cccc2ccccc12	15.8 µM
CC(=O)c1ccc(-c2cnc3c(NC=O)cc(-c4cccc(NS(C)(=O)=O)c4)cn23)cc1	> 79 µM (inactive)
Nc1ccc2c(c1)[nH]c(=O)c1ccccc12	> 79 µM (inactive)
COc1ccc(-c2cc(=O)oc3cc(OC(=O)C4CCCCC4)ccc23)cc1	31.7 µM (inactive)
O=C(NO)c1ccc(C(=O)N(C2CCCCC2)C2CCCCC2)cc1	> 79 µM (inactive)
COc1ccc(CN(C)C(=O)C(Cc2ccccc2)NC(=O)c2ccccc2)cc1F (centres undefined)	7.05 µM
COc1cccc(-c2ccc(SCC(=O)N3CCN(c4ccccc4)CC3)nn2)c1	> 79 µM (inactive)
CSc1nc(Cl)c(Br)c(N2CC2)n1	> 79 µM (inactive)
COc1cc(/C=N/NC(=O)c2ccccc2O)ccc1OCC(=O)Nc1ccccc1	> 79 µM (inactive)
CC(C)COc1nc2ccccc2c(=O)n1OCC(=O)O	> 79 µM (inactive)
O=C(Nc1nnc(-c2ccco2)o1)c1ccc2ccccc2c1	> 79 µM (inactive)
COc1ccc(/C=C(\C#N)C(=O)c2c(C)[nH]c3ccccc23)cc1OC	> 79 µM (inactive)
COc1cc(NC(=O)c2cccc3c(-c4cnn(C)c4)coc23)cc(OC)c1OC	> 79 µM (inactive)
CCC(CC)C(=O)Nc1cc(C)c2c(=O)oc3ccccc3c2n1	> 79 µM (inactive)
COc1ccc(-c2nn3c(-c4ccccc4)nnc3s2)cc1OC	> 79 µM (inactive)
COc1ccc(C(C(=O)NCc2ccccc2)N(Cc2ccco2)C(=O)c2snc(C(N)=O)c2N)cc1 (centres undefined)	> 79 µM (inactive)

Structure (SMILES)	IC50
CCOC(=O)c1ccc(NC(=O)c2nc[nH]c2C(=O)NCCCCCNC(=O)OC(C)(C)C)cc1	5.78 µM
COc1ccc(C=CC(=O)c2ccc3cc(OC)c(OC)cc3c2)cc1OC	> 79 µM (inactive)
COc1ccc(N(CC(=O)Nc2ccc3c(c2)OCO3)S(=O)(=O)c2ccccc2)c(OC)c1	15.4 µM
CC(C)COP(=O)(OCC(C)C)C(Nc1ccccc1)c1ccc2c(c1)OCO2 (centres undefined)	> 79 µM (inactive)
CC(=NO)C1CCC2C3CCC4CC(=NO)CCC4(C)C3C(C)(O)CC12C (centres undefined)	14.9 µM
COc1ccc(CCNC(=O)C(=O)NCC2CCCN2S(=O)(=O)c2ccccc2)cc1OC (centres undefined)	> 79 µM (inactive)
Cc1ccc(-c2n[nH]c(=O)c3ccccc23)cc1S(=O)(=O)NCCO	39.8 µM (inactive)
O=C(COc1cccc2c1CCNC2=O)Nc1ccc(F)cc1	> 79 µM (inactive)
Cc1ccc(CNC(=O)CCc2nc3ccccc3c(=O)[nH]2)cc1	13.9 µM
CC(C)C(=O)N1CCN(c2ccc(NC(=O)COc3ccccc3[N+](=O)[O-])cc2)CC1	> 79 µM (inactive)
Cc1ccc(C)c(S(=O)(=O)N(C(=O)c2ccncc2)c2ccc(OC(=O)c3ccncc3)cc2)c1	> 79 µM (inactive)
Cc1ccc(N(CCC#N)C(=O)CSc2nc3ccccc3c(=O)[nH]2)cc1	> 79 µM (inactive)
CCn1nc(C(=O)Nc2nc(-c3ccccn3)cs2)c2ccccc2c1=O	> 79 µM (inactive)
O=C(N/N=C/c1ccccn1)c1ccc(NC(=O)c2cccc([N+](=O)[O-])c2)cc1	11.5 µM
O=C(COc1cccc2c1CCNC2=O)Nc1ccc(Cl)cc1	> 79 µM (inactive)
COc1ccc(-c2cc(C(=O)N(C)Cc3nc4ccccc4c(=O)[nH]3)c3ccccc3n2)cc1OC	> 79 µM (inactive)
CC(C)CC(C(=O)NC1CCCCC1)N(Cc1cccs1)C(=O)c1snc(C(N)=O)c1N (centres undefined)	30.1 µM (inactive)
N#Cc1cnn2cc(-c3ncc(C(F)(F)F)cc3Cl)cnc12	27.6 µM
Cc1ccc(NC(=O)c2cc(-c3cccs3)nc3ccccc23)nc1	9.88 µM
COc1ccc(NC(=O)N(C)[C@H]2C[C@H]3c4[nH]c5ccc(-c6ccc7c(c6)OCO7)cc5c4CCN3C[C@H]2[C@H](C)O)cc1	> 79 µM (inactive)
COc1cc(-c2cc3nc(NCCc4ccc(S(N)(=O)=O)cc4)ccn3n2)cc(OC)c1OC	15.8 µM
Cc1ccc(-c2nnc3ccc(SCC(=O)N4CCCc5ccccc54)nn23)cc1	> 79 µM (inactive)
Cc1cc(C)cc(N(CCC#N)C(=O)COC(=O)Cn2[nH]c(=O)c3ccccc3c2=O)c1	> 79 µM (inactive)
COc1ccc2occ(C(=O)c3coc4ccc(O)c(CN(C)C)c34)c2c1	> 79 µM (inactive)

Structure (SMILES)	IC50
COc1ccc(/C=N/NC(=O)c2cc(OC)c(OC)c(OC)c2)cc1CN1CCc2cc(OC)c(OC)cc2C1C (centres undefined)	> 79 µM (inactive)
O=C(c1cc2nc(-c3ccccc3)cc(-c3ccccc3)n2n1)N1CCN(C(=O)c2ccco2)CC1	9.32 µM
NC(=O)c1nsc(C(=O)N(c2ccccc2)C(C(=O)NCc2ccc(F)cc2)c2ccc(O)cc2)c1N (centres undefined)	> 79 µM (inactive)
CCCNC(=O)c1ccc(N2CCC3(CC2)CC(c2ccccc2)=NO3)c(NC(=O)c2ccco2)c1	> 79 µM (inactive)
COc1ccccc1-c1cc(NC=O)c2ncc(-c3cccc(C(C)=O)c3)n2c1	> 79 µM (inactive)
CCCC(=O)Nc1nc2ccc(NC(=O)c3ccc(Br)o3)cc2s1	> 79 µM (inactive)
CCCC(c1nnnn1C(C)(C)CC)N(CCCO)Cc1cc2cc(C)cc(C)c2[nH]c1=O (centres undefined)	> 79 µM (inactive)
NS(=O)(=O)c1ccc(N=Cc2c(O)n(-c3nccs3)c(=O)c3ccccc23)cc1	> 79 µM (inactive)
Cc1sc2nc(COC(=O)Cc3ccccc3)[nH]c(=O)c2c1C	> 79 µM (inactive)
CC(OC(=O)Cn1[nH]c(=O)c2ccccc2c1=O)C(=O)Nc1cccc(Cl)c1 (centres undefined)	> 79 µM (inactive)
COc1ccccc1NC(=O)COc1cccc2c1CCNC2=O	> 79 µM (inactive)
O=C(CCc1nc2ccccc2c(=O)[nH]1)NNC(=O)c1cccc(Cl)c1	> 79 µM (inactive)
O=C1NC(=O)c2c(Br)c(Br)c(Br)c(Br)c21	> 79 µM (inactive)
Cc1ccc(C(=O)OCC(=O)Nc2sccc2C(N)=O)cc1NC(=O)c1ccco1	> 79 µM (inactive)
CCOC(=O)C1CCN(c2cc3c(cc2NC(=O)c2ccc(F)cc2)n(C)c(=O)n3C)CC1	21.2 µM
O=C(N/N=C/c1ccccn1)c1[nH]c2ccc([N+](=O)[O-])cc2c1-c1ccccc1	13.2 µM
Cc1[nH]c2ccccc2c1/C=N/NC(=O)c1cccs1	40.2 µM (inactive)
Cc1ccc(C(=O)Oc2ccc(Cl)c3cccnc23)cc1[N+](=O)[O-]	> 79 µM (inactive)
N#CCSc1nc2cc(C(=O)N3CCC(C(N)=O)CC3)ccc2c2nc3ccccc3n12	15 µM
COc1ccc(C(C)=O)cc1COC(=O)Cc1n[nH]c(=O)c2ccccc12	> 79 µM (inactive)
CCN(CC(=O)Nc1c(F)cccc1F)C(=O)CCc1nc2ccccc2c(=O)[nH]1	> 79 µM (inactive)
CCOc1cccc(-c2nn3c(-c4ccco4)nnc3s2)c1	22.6 µM
COc1cc(-c2nnc(-c3ccc(N4CCOCC4)cc3)o2)cc(OC)c1OC	> 79 µM (inactive)
O=C(Cc1n[nH]c(=O)c2ccccc12)OCC(=O)c1ccccc1	> 79 µM (inactive)

Structure (SMILES)	IC50
COc1ccc(CCn2c(=N)c(C(=O)NCC3CCCO3)cc3c(=O)n4cccc(C)c4nc32)cc1OC (centres undefined)	58 µM (inactive)
O=C(c1ccoc1)N1CCN(c2cc(-c3ccncc3)nc3cc(-c4cccc(Cl)c4)nn23)CC1	> 79 µM (inactive)
O=C(CN1CCN(S(=O)(=O)c2ccc(Br)cc2)CC1)c1ccc(O)c(O)c1	19.8 µM
O=C(Cn1nc(C(=O)O)c2ccccc2c1=O)c1c[nH]c2ccccc12	36.3 µM (inactive)
O=C(CN(c1ccc2c(c1)OCCO2)S(=O)(=O)c1ccccc1)Nc1ccc2c(c1)OCO2	> 79 µM (inactive)
O=c1[nH]nc(Cc2ccccn2)c2ccccc12	> 79 µM (inactive)
Cc1ccc(C)c(NC(=O)C(Sc2nc3ccccc3c(=O)n2CC(C)C)c2ccccc2)c1 (centres undefined)	> 79 µM (inactive)
Fc1ccc(-n2cc(-c3ccccc3)c3c(N4CCOCC4)ncnc32)cc1	> 79 µM (inactive)
NC(=O)c1ccc(Nc2nnc(-c3ccc(O)cc3)c3ccccc23)cc1	29.6 µM
COC(=O)c1cc(C(=O)OCC(=O)N2c3ccccc3NC(=O)C2(C)C)cc([N+](=O)[O-])c1	39 µM (inactive)
COC(=O)c1ccccc1NC(=O)/C=C/c1cc(OC)c(OC)c(OC)c1	22.9 µM
CCC(C)N(C(=O)COC(=O)Cc1n[nH]c(=O)c2ccccc12)C1CCS(=O)(=O)C1 (centres undefined)	> 79 µM (inactive)
COc1ccc(/C=C/C(=O)c2ccccc2O)cc1CN1CCOCC1	36.7 µM (inactive)
C/C(=N\NC(=O)c1cccnc1)c1ccc(OC2OCCOC2Oc2ccc(/C(C)=N/NC(=O)c3cccnc3)cc2)cc1 (centres undefined)	13.1 µM
CC(Oc1cccc(Cl)c1)C(=O)Nc1nc(-c2ccccn2)cs1 (centres undefined)	44.4 µM (inactive)
Cc1nn(C)cc1C(C(=O)NC1CCCCC1)N(C(=O)Cc1cccs1)c1ccc(Cl)cc1 (centres undefined)	27.5 µM
COc1ccc2c(c1)C(=O)[C@@H](O)[C@H](c1ccc(OC)c(Br)c1)O2	5.76 µM
O=C1OCCN1C(=O)[C@H]1[C@H](c2ccc([N+](=O)[O-])cc2)C(c2ccc(F)cc2)=NN1c1ccc(Br)cc1	6.03 µM
O=C(Nc1cccc(N=Cc2cc(Br)cc(Br)c2O)c1)c1ccco1	> 79 µM (inactive)
O=C(COC(=O)Cn1[nH]c(=O)c2ccccc2c1=O)NNC(=O)c1ccc(Br)cc1	> 79 µM (inactive)
COc1ccc2nc(Nc3nc(CSc4nc5ccccc5[nH]4)cc(=O)[nH]3)nc(C)c2c1	> 79 µM (inactive)
CC(=O)Nc1ccc(Nc2nc(-c3sc(NC(C)=O)nc3C)cs2)cc1	14.4 µM
